Laboratory results from ChEMBL document CHEMBL1136083, “Potent Grb2-SH2 domain antagonists not relying on phosphotyrosine mimics” (Bioorg Med Chem Lett, 2003).
pIC50: −log10 of the molar value. *1 amine or outer side, *2 acyl side, *3 side chain or, on linkers, in order; H or OH if unused. Where a SMILES comes first, the peptide text is derived from it. Bridges are numbered along the chain shown (N, C = ends). [ ]: non-standard residue; d: D form. Gla = N[C@@H](CC(C(=O)O)C(=O)O)C(=O)O; X1 = O=C([C@]1(N[*:1])CC2CCC1C2)[*:2]

molecular target: T1, Growth factor receptor-bound protein 2 (Homo sapiens, UniProt P62993); test: Inhibitory activity against Growth factor receptor bound protein 2 using ELISA assay
T1 sequence (P62993 whole entry): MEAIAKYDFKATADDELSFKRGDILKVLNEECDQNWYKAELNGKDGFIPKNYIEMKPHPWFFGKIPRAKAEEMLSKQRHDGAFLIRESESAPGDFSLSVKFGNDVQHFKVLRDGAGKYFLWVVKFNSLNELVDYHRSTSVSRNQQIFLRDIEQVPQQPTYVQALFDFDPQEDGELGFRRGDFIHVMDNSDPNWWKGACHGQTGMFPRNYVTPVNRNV

Row | Structure (SMILES) | pIC50
1 | CSCC[C@@H]1NC(=O)CNC(=O)[C@H](C(C)C)NC(=O)[C@H](CC(N)=O)NC(=O)[C@H](CCC(=O)O)NC(=O)[C@H](Cc2ccc(O)cc2)NC(=O)[C@H](CC(C)C)NC(=O)[C@H](CCC(=O)O)NC(=O)CSC[C@@H](C(N)=O)NC(=O)[C@H](Cc2ccc(O)cc2)NC1=O (HELM PEPTIDE1{[O=C(C[*:3])[*:2]].E.L.Y.E.N.V.G.M.Y.C.[am]}$PEPTIDE1,PEPTIDE1,1:R3-11:R3$$$V2.0) | 4.70

molecular target: T1, Growth factor receptor-bound protein 2; test: Binding affinity against Growth factor receptor bound protein 2 using ELISA assay

Row | Structure (SMILES) | pIC50
2 | CSCC[C@@H]1NC(=O)CNC(=O)[C@H](C(C)C)NC(=O)[C@H](CC(N)=O)NC(=O)[C@@]2(CC3CCC2C3)NC(=O)[C@H](Cc2ccc(O)cc2)NC(=O)[C@H](CC(C)C)NC(=O)[C@H](CC(C(=O)O)C(=O)O)NC(=O)CSC[C@@H](C(N)=O)NC(=O)[C@H](Cc2ccc(O)cc2)NC1=O (some centres not stated) ({CH2CO}-[Gla]LY[X1]NVGMYC-NH2; thioether N-10) | 6.14
3 | CC(C)C[C@H]1NC(=O)[C@H](CC(C(=O)O)C(=O)O)NC(=O)C[S+]([O-])C[C@@H](C(N)=O)NC(=O)[C@H](Cc2ccc(O)cc2)NC(=O)[C@@H](CC(C)(C)C)NC(=O)CNC(=O)[C@@H](C(C)C)NC(=O)[C@H](CC(N)=O)NC(=O)C2(CCCCC2)NC(=O)[C@H](Cc2ccc(O)cc2)NC1=O (stereo in doubt; 12) | 7.13
4 | CC(C)C[C@H]1NC(=O)[C@H](CC(C(=O)O)C(=O)O)NC(=O)CSC[C@@H](C(N)=O)NC(=O)[C@H](Cc2ccc(O)cc2)NC(=O)[C@@H](Cc2c(F)c(F)c(F)c(F)c2F)NC(=O)CNC(=O)[C@@H](C(C)C)NC(=O)[C@H](CC(N)=O)NC(=O)C2(CCCCC2)NC(=O)[C@H](Cc2ccc(O)cc2)NC1=O | 6.62
5 | CC(C)C[C@H]1NC(=O)[C@H](CC(C(=O)O)C(=O)O)NC(=O)C[S+]([O-])C[C@@H](C(N)=O)NC(=O)[C@H](Cc2ccc(O)cc2)NC(=O)[C@@H](CC(C)(C)C)NC(=O)CNC(=O)[C@@H](C(C)C)NC(=O)[C@H](CC(N)=O)NC(=O)C2(CCCCC2)NC(=O)[C@H](Cc2ccc(O)cc2)NC1=O (stereo in doubt; 13) | 6.13
6 | CSCC[C@H]1NC(=O)CNC(=O)[C@@H](C(C)C)NC(=O)[C@H](CC(N)=O)NC(=O)C2(CCCCC2)NC(=O)[C@H](Cc2ccc(O)cc2)NC(=O)[C@@H](CC(C)C)NC(=O)[C@H](CC(C(=O)O)C(=O)O)NC(=O)CSC[C@@H](C(N)=O)NC(=O)[C@H](Cc2ccc(O)cc2)NC1=O | 6.28
7 | CSCC[C@H]1NC(=O)CNC(=O)[C@@H](C(C)C)NC(=O)[C@H](CC(N)=O)NC(=O)[C@@H](CCC(=O)O)NC(=O)[C@H](Cc2ccc(O)cc2)NC(=O)[C@@H](CC(C)C)NC(=O)[C@H](CC(C(=O)O)C(=O)O)NC(=O)CSC[C@@H](C(N)=O)NC(=O)[C@H](Cc2ccc(O)cc2)NC1=O | 6.00
8 | CSCC[C@H]1NC(=O)CNC(=O)[C@@H](C(C)C)NC(=O)[C@H](CC(N)=O)NC(=O)[C@@H](CCCC(=O)O)NC(=O)[C@H](Cc2ccc(O)cc2)NC(=O)[C@@H](CC(C)C)NC(=O)[C@H](CC(C(=O)O)C(=O)O)NC(=O)CSC[C@@H](C(N)=O)NC(=O)[C@H](Cc2ccc(O)cc2)NC1=O | 5.82
9 | CSCC[C@@H]1NC(=O)CNC(=O)[C@H](C(C)C)NC(=O)[C@H](CC(N)=O)NC(=O)[C@H](CCC(=O)O)NC(=O)[C@H](Cc2ccc(O)cc2)NC(=O)[C@H](CC(C)C)NC(=O)[C@H](CCC(=O)O)NC(=O)CSC[C@@H](C(N)=O)NC(=O)[C@H](Cc2ccc(O)cc2)NC1=O (HELM PEPTIDE1{[O=C(C[*:3])[*:2]].E.L.Y.E.N.V.G.M.Y.C.[am]}$PEPTIDE1,PEPTIDE1,1:R3-11:R3$$$V2.0) | < 4.00
10 | CC(C)C[C@H]1NC(=O)[C@H](CC(C(=O)O)C(=O)O)NC(=O)C[S+]([O-])C[C@@H](C(N)=O)NC(=O)[C@H](Cc2ccc(O)cc2)NC(=O)[C@@H](Cc2ccc3ccccc3c2)NC(=O)CNC(=O)[C@@H](C(C)C)NC(=O)[C@H](CC(N)=O)NC(=O)C2(CCCCC2)NC(=O)[C@H](Cc2ccc(O)cc2)NC1=O (stereo in doubt; 14) | 6.50
11 | CC(C)C[C@H]1NC(=O)[C@H](CC(C(=O)O)C(=O)O)NC(=O)C[S+]([O-])C[C@@H](C(N)=O)NC(=O)[C@H](Cc2ccc(O)cc2)NC(=O)[C@@H](C2CCCCC2)NC(=O)CNC(=O)[C@@H](C(C)C)NC(=O)[C@H](CC(N)=O)NC(=O)C2(CCCCC2)NC(=O)[C@H](Cc2ccc(O)cc2)NC1=O (stereo in doubt; 16) | 6.83
12 | CSCC[C@@H]1NC(=O)CNC(=O)[C@H](C(C)C)NC(=O)[C@H](CC(N)=O)NC(=O)[C@@H]2CCCN2C(=O)[C@H](Cc2ccc(O)cc2)NC(=O)[C@H](CC(C)C)NC(=O)[C@H](CCC(=O)O)NC(=O)CSC[C@@H](C(N)=O)NC(=O)[C@H](Cc2ccc(O)cc2)NC1=O (HELM PEPTIDE1{[O=C(C[*:3])[*:2]].E.L.Y.P.N.V.G.M.Y.C.[am]}$PEPTIDE1,PEPTIDE1,1:R3-11:R3$$$V2.0) | 5.11
13 | CC(C)C[C@H]1NC(=O)[C@H](CC(C(=O)O)C(=O)O)NC(=O)C[S+]([O-])C[C@@H](C(N)=O)NC(=O)[C@H](Cc2ccc(O)cc2)NC(=O)[C@@H](C2CCCCC2)NC(=O)CNC(=O)[C@@H](C(C)C)NC(=O)[C@H](CC(N)=O)NC(=O)C2(CCCCC2)NC(=O)[C@H](Cc2ccc(O)cc2)NC1=O (stereo in doubt; 17) | 5.85
14 | CC(C)C[C@H]1NC(=O)[C@H](CC(C(=O)O)C(=O)O)NC(=O)CSC[C@@H](C(N)=O)NC(=O)[C@H](Cc2ccc(O)cc2)NC(=O)[C@@H](Cc2ccc3ccccc3c2)NC(=O)CNC(=O)[C@@H](C(C)C)NC(=O)[C@H](CC(N)=O)NC(=O)C2(CCCCC2)NC(=O)[C@H](Cc2ccc(O)cc2)NC1=O | 6.57
15 | CC(C)C[C@H]1NC(=O)[C@H](CC(C(=O)O)C(=O)O)NC(=O)CSC[C@@H](C(N)=O)NC(=O)[C@H](Cc2ccc(O)cc2)NC(=O)[C@@H](Cc2ccc(-c3ccccc3)cc2)NC(=O)CNC(=O)[C@@H](C(C)C)NC(=O)[C@H](CC(N)=O)NC(=O)C2(CCCCC2)NC(=O)[C@H](Cc2ccc(O)cc2)NC1=O | 6.30
16 | CC(C)C[C@H]1NC(=O)[C@H](CC(C(=O)O)C(=O)O)NC(=O)CSC[C@@H](C(N)=O)NC(=O)[C@H](Cc2ccc(O)cc2)NC(=O)[C@@H](CC(C)(C)C)NC(=O)CNC(=O)[C@@H](C(C)C)NC(=O)[C@H](CC(N)=O)NC(=O)C2(CCCCC2)NC(=O)[C@H](Cc2ccc(O)cc2)NC1=O | 6.61
17 | CC(C)C[C@H]1NC(=O)[C@H](CC(C(=O)O)C(=O)O)NC(=O)C[S+]([O-])C[C@@H](C(N)=O)NC(=O)[C@H](Cc2ccc(O)cc2)NC(=O)[C@@H](Cc2ccc3ccccc3c2)NC(=O)CNC(=O)[C@@H](C(C)C)NC(=O)[C@H](CC(N)=O)NC(=O)C2(CCCCC2)NC(=O)[C@H](Cc2ccc(O)cc2)NC1=O (stereo in doubt; 15) | 5.31
